Measurements reported in paper PMC8949503, “Radiosynthesis and Preclinical Evaluation of Bispecific PSMA/FAP Heterodimers for Tumor Imaging” (Pharmaceuticals, 2022).
One block for each molecule: values may come before it.

Experiments:
[1] = target: T1, FAP (Homo sapiens, UniProt Q12884); test: competitive binding to FAP on A549-FAP cells vs [18F]FAPI-42; settings: for IC50: competition with [18F]FAPI-42, 60 min 37 °C
T1 construct: expressed in transfected cells
T1 sequence (Q12884 1-760): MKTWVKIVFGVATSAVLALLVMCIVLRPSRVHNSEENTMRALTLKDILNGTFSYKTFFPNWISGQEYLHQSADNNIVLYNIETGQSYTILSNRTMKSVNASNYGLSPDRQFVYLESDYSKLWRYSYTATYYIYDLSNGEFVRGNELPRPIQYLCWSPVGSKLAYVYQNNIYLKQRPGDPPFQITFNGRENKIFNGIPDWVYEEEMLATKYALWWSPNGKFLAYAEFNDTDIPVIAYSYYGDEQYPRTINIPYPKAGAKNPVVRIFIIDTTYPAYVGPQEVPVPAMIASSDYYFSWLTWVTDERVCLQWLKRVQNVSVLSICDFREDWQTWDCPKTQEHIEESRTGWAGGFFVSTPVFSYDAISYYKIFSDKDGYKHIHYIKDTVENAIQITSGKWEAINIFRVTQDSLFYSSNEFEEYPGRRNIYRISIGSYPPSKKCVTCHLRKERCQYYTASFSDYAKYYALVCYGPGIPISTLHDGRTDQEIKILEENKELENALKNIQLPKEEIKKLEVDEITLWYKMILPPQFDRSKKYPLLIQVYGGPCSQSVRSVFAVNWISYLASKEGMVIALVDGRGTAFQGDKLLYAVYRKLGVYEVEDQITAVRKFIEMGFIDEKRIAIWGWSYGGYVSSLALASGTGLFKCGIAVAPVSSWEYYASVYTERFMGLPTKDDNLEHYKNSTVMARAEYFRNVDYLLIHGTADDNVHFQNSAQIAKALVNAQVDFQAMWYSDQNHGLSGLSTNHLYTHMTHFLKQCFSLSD
Procedure: (§1) PSMA-positive 22Rv1 cells (purchased from Institute of Biochemistry and Cell Biology, Shanghai, China) and stably FAP-transfected A549-FAP cells (acquired using lentiviral infection) were used for the cell-based experiments. The 22Rv1 cells were cultivated in RPMI-1640 medium (Gibco) at 37 °C/5% carbon dioxide, while the A549-FAP cells were cultivated in DMEM medium. Both media were supplemented with 10% heat-inactivated fetal bovine serum (FBS) and 1% penicillin/streptomycin (Gibco). Puromycin (1 µg/mL) was also added to the media to maintain FAP expression.
(§2) Cells were seeded in 12-well plates 2 days in advance to achieve a final confluence of approximately 80–90% (4–5 × 10^5 cells/well). The medium was displaced by 1 mL fresh medium without FBS. The method of cell studies was similar to a method reported previously. For the competitive binding experiments, cells were incubated with the known radiotracers ([^18F]FAPI-42 for the FAP receptor and [^18F]AlF-PSMA-BCH for PSMA) in the presence of 7 different concentrations (10^−5–10^−11 M) of the corresponding unlabeled heterodimers or corresponding monomer and incubated for 60 min at 37 °C. In all experiments, the cells were washed twice with PBS, lysed with 1 M NaOH, and counted using a γ-counter. IC50 values were calculated by fitting the data using a nonlinear regression algorithm (implemented in SPSS). For the radioligand binding studies, the cells were incubated for 5, 15, 30, 60, or 120 min at 37 °C after the addition of the heterodimer or corresponding monomeric radiotracer radiotracers. The blocking experiments were determined by adding the corresponding competitors (4.4 μM 2-PMPA for 22Rv1 cells and 2.3 μM DOTA-FAPI-04 for A549-FAP cells). Radioactivity was measured using a γ-counter, normalized to 1 million cells (1 mio cells), and calculated as the percentage of the applied dose (%ID/1 mio cells). For the internalization experiments, the cells were incubated with the radiolabeled compound for 60 min, washed twice with 1 mL PBS, and then incubated for 10 min with 1 mL glycine HCl (1 M, pH 2.2) to detach the extracellular bound tracer. Next, the cells were washed with PBS (2.0 mL) and lysed with 1 M NaOH (1.5 mL). The radioactivity of the acid wash solution (extracellularly bound tracer) and cell lysate (internalized tracer) was assessed separately using a γ-counter. For the efflux experiments, the radioactive medium was removed after 60 min incubation and replaced with non-radioactive medium. At predetermined time points of 15, 30, 60, and 120 min, the cells were washed with 1.0 mL PBS three times and then lysed. The radioactivity of the remaining cells was assessed using a γ-counter. Each experiment was conducted three times with three or four replicates per independent experiment.

[2] = target: T2, PSMA (Homo sapiens, UniProt Q04609); test: competitive binding to PSMA on 22Rv1 cells vs [18F]AlF-PSMA-BCH; settings: for IC50: competition with [18F]AlF-PSMA-BCH, 60 min 37 °C
T2 construct: PSMA-positive 22Rv1 cells; host or cells: 22Rv1 cells
T2 sequence (Q04609 whole entry): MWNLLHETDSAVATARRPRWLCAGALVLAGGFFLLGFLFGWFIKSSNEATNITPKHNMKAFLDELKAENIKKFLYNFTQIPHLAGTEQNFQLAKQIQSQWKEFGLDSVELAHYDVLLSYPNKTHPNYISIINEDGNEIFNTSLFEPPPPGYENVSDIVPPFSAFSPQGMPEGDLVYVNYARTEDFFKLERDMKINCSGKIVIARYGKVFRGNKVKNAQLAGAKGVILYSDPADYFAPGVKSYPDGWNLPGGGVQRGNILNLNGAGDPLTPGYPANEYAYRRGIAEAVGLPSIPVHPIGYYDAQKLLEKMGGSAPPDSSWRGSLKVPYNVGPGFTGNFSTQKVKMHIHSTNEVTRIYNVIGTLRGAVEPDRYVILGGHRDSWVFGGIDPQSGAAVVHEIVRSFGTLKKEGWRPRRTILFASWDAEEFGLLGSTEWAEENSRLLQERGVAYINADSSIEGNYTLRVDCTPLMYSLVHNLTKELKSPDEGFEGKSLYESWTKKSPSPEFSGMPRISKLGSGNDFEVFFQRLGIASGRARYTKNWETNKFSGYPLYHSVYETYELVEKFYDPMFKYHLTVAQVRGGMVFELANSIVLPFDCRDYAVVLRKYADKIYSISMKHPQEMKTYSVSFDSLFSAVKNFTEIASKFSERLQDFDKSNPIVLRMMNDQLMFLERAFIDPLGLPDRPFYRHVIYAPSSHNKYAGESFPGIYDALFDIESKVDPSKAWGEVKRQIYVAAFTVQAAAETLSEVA
Procedure: as §1, §2

[3] = system: 22Rv1 tumor-bearing nude mice; test: tissue biodistribution and blocking in 22Rv1 tumor-bearing nude mice; assay type: in vivo; settings: 1 h p.i.
Procedure: (§3) For the biodistribution and micro-PET imaging studies, male BALB/c nude mice (6–8 weeks) were subcutaneously inoculated with 1 × 10^7 22Rv1 or 5 × 10^6 A549-FAP cells in the right shoulder. Mice were imaged or used in the biodistribution studies when the tumor reached 5–10 mm in diameter.
(§4) Mice bearing 22Rv1 or A549-FAP (n = 4 in each group) tumors were euthanized 60 min after intravenous administration of each tracer (740–1480 KBq/mouse). In the blocking group, the same experiment was conducted by co-injecting 50 μg of 2-PMPA for mice bearing 22Rv1 tumors or 50 μg of DOTA-FAPI-04 for mice bearing A549-FAP tumors. The organs of interest and tumors were quickly dissected and weighed. Radioactivity was assessed using a γ-counter and calculated as the percentage injected dose per gram (%ID/g).

[4] = system: A549-FAP tumor-bearing nude mice; test: tissue biodistribution and blocking in A549-FAP tumor-bearing nude mice; assay type: in vivo; settings: 1 h p.i.
Procedure: as §3, §4

- IC50 [1]: 14.5 nM
SMILES: N#C[C@@H]1CC(F)(F)CN1C(=O)CNC(=O)c1ccnc2ccc(OCCCN3CCN(C(=O)CN4CCN(CC(=O)O)CCN(CC(=O)O)CC4)CC3)cc12 [NOTA-FAPI-42, reference compound]

- 22Rv1 tumor* uptake [3]: 6.44 ± 1.78 %ID/g
- Blood uptake [3]: 0.56 ± 0.19 %ID/g
- Bone uptake [3]: 0.84 ± 0.39 %ID/g
- Brain uptake [3]: 0.14 ± 0.04 %ID/g
- Gall bladder uptake [3]: 6.62 ± 4.25 %ID/g
- Heart uptake [3]: 0.45 ± 0.10 %ID/g
- Kidney* uptake [3]: 66.10 ± 18.80 %ID/g
- Liver uptake [3]: 0.47 ± 0.03 %ID/g
- Lung uptake [3]: 0.86 ± 0.25 %ID/g
- Muscle uptake [3]: 0.31 ± 0.10 %ID/g
- Small intestine uptake [3]: 0.78 ± 0.12 %ID/g
- Spleen uptake [3]: 1.33 ± 0.54 %ID/g
- Stomach uptake [3]: 0.41 ± 0.05 %ID/g
SMILES: O=C(O)CC[C@H](NC(=O)N[C@@H](CCCCNC(=O)[C@@H](Cc1ccc2ccccc2c1)NC(=O)C1CCC(CNC(=O)CN2CCN3CCN(CC2)CC(=O)[O][Al]([18F])[O]C(=O)C3)CC1)C(=O)O)C(=O)O (stereo partly drawn) [[^18F]AlF-PSMA-BCH]

- IC50 [2]: 2.5 nM
SMILES: O=C(O)CC[C@H](NC(=O)N[C@@H](CCCCNC(=O)[C@@H](Cc1ccc2ccccc2c1)NC(=O)C1CCC(CNC(=O)CN2CCN(CC(=O)O)CCN(CC(=O)O)CC2)CC1)C(=O)O)C(=O)O (stereo partly drawn) [NOTA-PSMA-BCH, reference compound]

Continued, molecule first:

SMILES: N#C[C@@H]1CC(F)(F)CN1C(=O)CNC(=O)c1ccnc2ccc(OCCCN3CCN(C(=O)CCC(=O)NCCCC[C@H](NC(=O)CN4CCN(CC(=O)O)CCN(CC(=O)O)CC4)C(=O)NCC4CCC(C(=O)N[C@H](Cc5ccc6ccccc6c5)C(=O)NCCCC[C@H](NC(=O)N[C@@H](CCC(=O)O)C(=O)O)C(=O)O)CC4)CC3)cc12 (stereo partly drawn) [NOTA-PSMA-FAPI-02]
- fold higher in potency than the monomer NOTA-FAPI-42 [1]: ~3 fold
- IC50 [1]: 5.8 nM
- fold less potent than the monomer NOTA-PSMA-BCH [2]: ~4 fold
- IC50 [2]: 9.8 nM

SMILES: N#C[C@@H]1CC(F)(F)CN1C(=O)CNC(=O)c1ccnc2ccc(OCCCN3CCN(C(=O)CN4CCN5CCN(CC4)CC(=O)[O][Al]([F])[O]C(=O)C5)CC3)cc12 [[^18F]FAPI-42, reference compound]
- A549-FAP tumor uptake [4]: 5.25 ± 0.27 %ID/g
- Blood uptake [4]: 1.52 ± 0.22 %ID/g
- Bone uptake [4]: 7.29 ± 1.52 %ID/g
- Brain uptake [4]: 0.10 ± 0.01 %ID/g
- Gall bladder uptake [4]: 10.58 ± 0.83 %ID/g
- Heart uptake [4]: 0.76 ± 0.09 %ID/g
- Kidney uptake [4]: 1.86 ± 0.11 %ID/g
- Liver uptake [4]: 0.83 ± 0.19 %ID/g
- Lung uptake [4]: 0.96 ± 0.11 %ID/g
- Muscle uptake [4]: 1.86 ± 0.32 %ID/g
- Small intestine uptake [4]: 2.85 ± 0.91 %ID/g
- Spleen uptake [4]: 0.64 ± 0.04 %ID/g
- Stomach uptake [4]: 0.56 ± 0.03 %ID/g

SMILES: N#C[C@@H]1CC(F)(F)CN1C(=O)CNC(=O)c1ccnc2ccc(OCCCC(=O)NCCCC[C@H](NC(=O)CN3CCN(CC(=O)O)CCN(CC(=O)O)CC3)C(=O)NCC3CCC(C(=O)N[C@H](Cc4ccc5ccccc5c4)C(=O)NCCCC[C@H](NC(=O)N[C@@H](CCC(=O)O)C(=O)O)C(=O)O)CC3)cc12 (stereo partly drawn) [NOTA-PSMA-FAPI-01]
- fold higher in potency than the monomer NOTA-FAPI-42 [1]: approximately 9 fold
- IC50 [1]: 1.7 nM
- fold less potent than the monomer NOTA-PSMA-BCH [2]: approximately 13 fold
- IC50 [2]: 33.7 nM
